What was measured:
[1] = tested on: GAP-43 mRNA; assay: RT-qPCR of GAP-43 mRNA in primary cultured adult DRG neurons; type: cell-based, rat; conditions: 240 nM, 24 h, vs vehicle
[2] = tested on: TLR4; assay: Immunoblot of injured sciatic nerve two days after PNL, TLR4; type: in vivo, mouse; conditions: 2 μg/g s.c.
Method: Neuropathic pain model: Mice (n=30) were randomly assigned to two different groups: SP163M (2 μg/g; s.c. 100 μl) and vehicle (H20 s.c. 100 μl). Mice were treated 1 h prior to partial nerve ligation (PNL) and then daily at least 1 h prior to behavior testing for 2 weeks. PNL studies were performed as previously disclosed^59 and adapted for mice.^57 Male mice were anesthetized with 3% isoflurane (Vetone, USA) in 1.5 L/min oxygen (Praxair, USA) and maintained with 2.5% isoflurane. An incision was made along the long axis of the femur. […] Filaments were presented in a consecutive fashion either ascending or descending using the up-down method as previously disclosed^60 and modified for mice.^57,61 The filament that caused paw withdrawal 50% of the time (the 50% PWT) was determined. […]
Immunoblots of sciatic nerve: Sciatic nerves were harvested 2 days after PNL to identify early molecular and cellular changes. […] Nerves were lysed in RIPA buffer and equal amounts of protein (20 μg) from nerves lysates, as determined by BCA Protein Assay (Bio-Rad, Hercules, CA, USA), were subjected to 10% SDS-PAGE and electro-transferred to nitrocellulose membranes. […] Primary antibodies were detected with HRP-conjugated species-specific secondary antibodies (Cell Signaling Technology, Danvers, MA, USA; cat #7076S or 4S; 1:5000). […]

[3] = tested on: TSLP; assay: MC903 AD model, TSLP in ears and serum by ELISA; type: in vivo, mouse; conditions: topical, vs MC903 treated mice
Method: Mice were treated with SP16 in 70% EtOH (MC903+SP16) or drug vehicle (MC903). Normal control (NC) mice were treated with EtOH only. Ears were measured for PAR2 protein expression through western blot analysis (quantitative analysis after normalization to beta-actin shown) (n=3-5). TSLP was measured in both the ears and serum by ELISA (N=3-5). Scratching was assessed over a 3 minute period after a 5-minute acclimatization period and the number of scratches are shown (n=3). IL-4 was measured in ear lysate via ELISA (N=3-5).

## VKFNKPFVFLMIEQNTK (SP16 peptide core sequence including the LRP1 binding site; listed as Homo sapiens)
[1]
  GAP-43 mRNA: increased GAP-43 mRNA compared to vehicle-treated neurons
[2]
  TLR4 expression in injured sciatic nerve (immunoblots): robustly down regulated TLR4 expression
[3]
  local (ear) TSLP: significant reduction in systemic (serum) and local (ear) TSLP
  systemic (serum) TSLP: significant reduction in systemic (serum) and local (ear) TSLP
